Results as given in patent US20110150836A1, “METHODS OF TREATING HBV AND HCV INFECTION” (Gilead Sciences, Inc., priority 2009, published 2011).

Tests used:
[1] = tested on: serum cytokines; assay: Induction of serum cytokines in mice (ELISA, Luminex/Milliplex); type: in vivo, CD-1 mice; details: Day 1, 2 hours Post-dose
Description: Compound A was dosed once per day for 14 days by oral gavage, at 0.5 mg/kg or 2.5 mg/kg, in CD-1 mice. Mouse serum samples were collected on day 1 and day 14, and serum cytokine levels were determined using the following method. The assay for interferon-a was done by ELISA (VeriKine™ Mouse Interferon Alpha (Mu-IFN-a) ELISA Kit, Product Number: 42100-1, PBL Biomedical Laboratories, New Brunswick, N.J.) and the other serum cytokines were assayed with Luminex and Milliplex bead kits. Cytokine levels were determined using a nonlinear five point parameter curve for interpolation of data using the fit=(A+((B−A)/(1+(((B−E)/(E−A))*((x/C)̂D))))). The results are shown in Table 4 where the cytokine concentrations are expressed in units of pg/mL.

[2] = tested on: human peripheral blood mononuclear cells (PBMCs); assay: Induction of cytokines in human PBMCs in vitro (Luminex/Upstate multi-plex); type: cell-based; details: 24 hours; for IFN-α concentration / IFN-β concentration / IFN-γ concentration / IL1-α concentration / IL1-β concentration / IL-1ra concentration / IL-6 concentration / IL-10 concentration / IL-12 concentration / TNF-α concentration: PBMC supernatant
Description: Frozen human PBMCs were thawed and used to seed the wells of 96 well plates (7.5×10^5cells/well in 190 μL/well culture medium (CM)). The cells were incubated for 1 hour at 37° C. at a 5% CO2. […] The plates were incubated at 37° C., 5% CO2, for 24 hours, then centrifuged at 1200 rpm for 10 minutes. After centrifugation the supernatant was collected and stored at −80° C. The supernatant was assayed using Luminex and Upstate multi-plex kits for the presence of various cytokines.

[3] = tested on: Woodchuck Hepatitis Virus (WHV); assay: Seroconversion and antiviral activity in woodchucks chronically infected with WHV; type: in vivo, Eastern Woodchucks (Marmota monax); details: chronic WHV carrier woodchucks, oral 0.5 mg/kg/day for 28 days
Description: Compound A or placebo was administered orally to five woodchucks per group that were chronic carriers of woodchuck hepatitis virus (WHV). Compound A was administered at a dose of 0.5 mg/kg/day for 28 days. Blood samples were collected prior to dosing and multiple times during and after the 28 day dosing period. Antiviral activity of Compound A was assessed by comparing the serum WHV DNA of treated WHV carrier woodchucks with control WHV carrier woodchucks receiving vehicle. The ability of Compound A to cause seroconversion in chronically infected animals was assessed by comparing the serum antibody levels against the woodchuck hepatitis virus surface antigen (anti-WHsAg) in infected animals to the anti-WHsAg antibody levels in placebo treated animals.
The woodchucks used in this study were born to WHV-negative females and reared in environmentally controlled laboratory animal facilities. Woodchucks were inoculated at 3 days of age with 5 million woodchuck infectious doses of a standardized WHV inoculum (cWHV7P1 or WHV7P2). Woodchucks selected for use developed WHV surface antigen (WHsAg) serum antigenemia and became chronic WHV carriers. The chronic carrier status of these woodchucks was confirmed prior to initiation of drug treatment.
Serum WHV DNA concentrations were measured before treatment, during treatment, and during the post-treatment follow-up period at frequent intervals. WHV viremia in serum samples was assessed by dot blot hybridization using three replicate volumes (10 μl) of undiluted serum (sensitivity, 1.0×10^7 WHV genome equivalents per ml [WHVge/ml]) compared with a standard dilution series of WHV recombinant DNA plasmid (pWHV8).
Levels of Woodchuck Hepatitis Virus surface antigen (WHsAg) and antibodies to WHsAg (anti-WHs) were determined before treatment, during treatment, and during the post-treatment follow-up period at frequent intervals, using WHV-specific enzyme immunoassays.
Antiviral activity of Compound A was assessed by comparing the serum WHV DNA and the hepatic WHV nucleic acids of treated WHV carrier woodchucks with control WHV carrier woodchucks receiving vehicle.
Immune stimulatory activity of Compound A to cause seroconversion was assessed by comparing the serum levels of WHsAg and antibodies to WHsAg (anti-WHsAg).

[4] = tested on: interferon-alpha; assay: Induction of interferon alpha in cynomolgus monkeys, multiple oral doses once per day (serum ELISA); type: in vivo
Description: Additionally, multiple doses of Compound A were administered to Cynomolgus monkeys, and the concentrations of interferon alpha were measured. Compound A was dosed orally once per day to Cynomolgus monkeys (3 animals per dose group), and serum was collected on Days 1, 7 and 15 at 4 and 8 hours after dosing. Serum samples were analyzed for levels of interferon-alpha by ELISA. Prior to dosing on Day 1, serum interferon-alpha levels were below the level of detection in each animal.

SMILES: CCCCOc1nc(N)c2nc(O)n(Cc3cccc(CN4CCCC4)c3)c2n1 [Compound A, 6-amino-2-butoxy-9-(3-(pyrrolidin-1-ylmethyl)benzyl)-9H-purin-8-ol]
- Average Serum IFN-a Level ± Standard Deviation ([1]; oral 0.5 mg/kg): 296.3 ± 322.4 pg/mL
- Average Serum IL1-β Level ± Standard Deviation ([1]; oral 0.5 mg/kg): 4.8 ± 2.7 pg/mL
- Average Serum IL6 Level ± Standard Deviation ([1]; oral 0.5 mg/kg): 257.2 ± 420.9 pg/mL
- Average Serum IL12p40 Level ± Standard Deviation ([1]; oral 0.5 mg/kg): 3.2 ± 0 pg/mL
- Average Serum IL-10 Level ± Standard Deviation ([1]; oral 0.5 mg/kg): 3.2 ± 0 pg/mL
- Average Serum TNF-a Level ± Standard Deviation ([1]; oral 0.5 mg/kg): 41.7 ± 42.4 pg/mL
- Average Serum IFN-a Level ± Standard Deviation ([1]; oral 2.5 mg/kg): 1091.8 ± 413.6 pg/mL
- Average Serum IL1-β Level ± Standard Deviation ([1]; oral 2.5 mg/kg): 20.8 ± 16.1 pg/mL
- Average Serum IL6 Level ± Standard Deviation ([1]; oral 2.5 mg/kg): 6710.2 ± 3657.4 pg/mL
- Average Serum IL12p40 Level ± Standard Deviation ([1]; oral 2.5 mg/kg): 10 ± 11.7 pg/mL
- Average Serum IL-10 Level ± Standard Deviation ([1]; oral 2.5 mg/kg): 143.4 ± 102.7 pg/mL
- Average Serum TNF-a Level ± Standard Deviation ([1]; oral 2.5 mg/kg): 407.1 ± 258.1 pg/mL
- production of cytokines in human PBMCs in vitro ([2]; 0.1, 0.01, 0.001 μM): stimulated the production of a range of cytokines
- IFN-α concentration ([2]; Compound A 0.001 μM): 208 pg/mL
- IFN-β concentration ([2]; Compound A 0.001 μM): 324 pg/mL
- IFN-γ concentration ([2]; Compound A 0.001 μM): 2099 pg/mL
- IL1-α concentration ([2]; Compound A 0.001 μM): 7 pg/mL
- IL1-β concentration ([2]; Compound A 0.001 μM): 138 pg/mL
- IL-1ra concentration ([2]; Compound A 0.001 μM): 3216 pg/mL
- IL-6 concentration ([2]; Compound A 0.001 μM): 27664 pg/mL
- IL-10 concentration ([2]; Compound A 0.001 μM): 735 pg/mL
- IL-12 concentration ([2]; Compound A 0.001 μM): 61 pg/mL
- TNF-α concentration ([2]; Compound A 0.001 μM): 82 pg/mL
- IFN-α concentration ([2]; Compound A 0.01 μM): 122 pg/mL
- IFN-β concentration ([2]; Compound A 0.01 μM): 170 pg/mL
- IFN-γ concentration ([2]; Compound A 0.01 μM): 4578 pg/mL
- IL1-α concentration ([2]; Compound A 0.01 μM): 94 pg/mL
- IL1-β concentration ([2]; Compound A 0.01 μM): 752 pg/mL
- IL-1ra concentration ([2]; Compound A 0.01 μM): 4530 pg/mL
- IL-6 concentration ([2]; Compound A 0.01 μM): 66284 pg/mL
- IL-10 concentration ([2]; Compound A 0.01 μM): 992 pg/mL
- IL-12 concentration ([2]; Compound A 0.01 μM): 386 pg/mL
- TNF-α concentration ([2]; Compound A 0.01 μM): 1449 pg/mL
- IFN-α concentration ([2]; Compound A 0.1 μM): 80 pg/mL
- IFN-β concentration ([2]; Compound A 0.1 μM): 97 pg/mL
- IFN-γ concentration ([2]; Compound A 0.1 μM): 5400 pg/mL
- IL1-α concentration ([2]; Compound A 0.1 μM): 280 pg/mL
- IL1-β concentration ([2]; Compound A 0.1 μM): 2836 pg/mL
- IL-1ra concentration ([2]; Compound A 0.1 μM): 4934 pg/mL
- IL-6 concentration ([2]; Compound A 0.1 μM): 93554 pg/mL
- IL-10 concentration ([2]; Compound A 0.1 μM): 1523 pg/mL
- IL-12 concentration ([2]; Compound A 0.1 μM): 773 pg/mL
- TNF-α concentration ([2]; Compound A 0.1 μM): 3665 pg/mL
- serum WHV DNA concentrations ([3]; FIG. 1): caused a substantial reduction in serum WHV DNA concentrations
- antibodies against Woodchuck Hepatitis Virus Surface Antigen (anti-WHs) ([3]; FIG. 2): stimulated production of antibodies against Woodchuck Hepatitis Virus Surface Antigen (WHsAg)
- serum levels of WHsAg ([3]; FIG. 3): caused a substantial reduction in serum levels of WHsAg
- seroconversion against WHV ([3]; FIGS. 1-3): induced seroconversion against WHV
- Average peak serum Interferon-alpha levels on designated day ([4]; oral 0.005 mg/kg once per day, Day 1): 3233 pg/mL
- Average peak serum Interferon-alpha levels on designated day ([4]; oral 0.005 mg/kg once per day, Day 7): 6709 pg/mL
- Average peak serum Interferon-alpha levels on designated day ([4]; oral 0.005 mg/kg once per day, Day 15): 24053 pg/mL
- Average peak serum Interferon-alpha levels on designated day ([4]; oral 0.05 mg/kg once per day, Day 1): 87570 pg/mL
- Average peak serum Interferon-alpha levels on designated day ([4]; oral 0.05 mg/kg once per day, Day 7): 12175 pg/mL
- Average peak serum Interferon-alpha levels on designated day ([4]; oral 0.05 mg/kg once per day, Day 15): 42648 pg/mL
- induction of serum interferon-alpha ([4]; oral once per day, 0.005 and 0.05 mg/kg, Days 1, 7, 15): Interferon-alpha was induced
